Experiments:
SHMT1 = molecular target: T1, SHMT1 (Homo sapiens, UniProt P34896); assay: Spectrophotometric quinonoid-intermediate competitive binding assay on purified recombinant SHMT1; assay type: biochemical; details: purified SHMT1 5.5 μM, glycine 3.0 mM, 20 μM H4PteGlu, read-out: estimated inhibition constants (IC50)
T1 construct: made in house
T1 sequence (P34896 1-483): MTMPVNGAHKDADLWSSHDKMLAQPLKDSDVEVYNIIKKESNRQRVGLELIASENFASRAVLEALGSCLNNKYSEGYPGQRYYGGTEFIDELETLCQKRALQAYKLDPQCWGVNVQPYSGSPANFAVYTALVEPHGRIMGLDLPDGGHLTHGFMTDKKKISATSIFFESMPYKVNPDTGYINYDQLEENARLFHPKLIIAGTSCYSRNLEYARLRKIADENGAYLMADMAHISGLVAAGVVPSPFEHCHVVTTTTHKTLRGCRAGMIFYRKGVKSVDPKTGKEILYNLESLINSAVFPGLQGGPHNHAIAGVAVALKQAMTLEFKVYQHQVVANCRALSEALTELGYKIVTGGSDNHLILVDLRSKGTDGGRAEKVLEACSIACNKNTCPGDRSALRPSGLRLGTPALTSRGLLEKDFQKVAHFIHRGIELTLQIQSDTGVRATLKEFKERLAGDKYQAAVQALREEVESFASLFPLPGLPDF
Method: (§1) Initially, compounds 2.2 and 2.12 (Figure 1) were tested on purified recombinant SHMT1 and SHMT2 isoforms using a spectrophotometric assay, in which the inhibitors and H4PteGlu compete for binding to the same site of the enzyme. Both isozymes (5.5 μM) were incubated with a saturating concentration of glycine (3.0 mM), in the presence of 20 μM H4PteGlu and a varying concentration of either compound 2.12 or 2.2. The activity of the enzyme was calculated from the spectrophotometric measurement of the quinonoid intermediate that develops when both glycine and H4PteGlu bind to SHMT [20]. […]
(§2) Figure 2 Activity inhibition on purified SHMTs by compound 2.12 The activity of cytosolic (black symbols) and mitochondrial (red symbols) SHMT isoforms was measured in the presence of increasing concentrations of compound 2.12. […]
(§3) Inhibition of SHMT activity by compound 2.12 was tested using competitive binding assays in which the antifolate competes for binding with H4PteGlu. […] Therefore, absorbance at 500 nm is proportional to the fraction of enzyme present as ternary complex. […] The effect of DMSO concentration on quinonoid development was analysed and found to be negligible up to 20% DMSO (v/v). […] After a rapid manual mixing, the absorbance change at 500 nm was measured. […]

SHMT2 = molecular target: T2, SHMT2 (Homo sapiens, UniProt P34897); assay: Spectrophotometric quinonoid-intermediate competitive binding assay on purified recombinant SHMT2; assay type: biochemical; details: purified SHMT2 5.5 μM, glycine 3.0 mM, 20 μM H4PteGlu, read-out: estimated inhibition constants (IC50)
T2 construct: made in house
T2 sequence (P34897 30-504): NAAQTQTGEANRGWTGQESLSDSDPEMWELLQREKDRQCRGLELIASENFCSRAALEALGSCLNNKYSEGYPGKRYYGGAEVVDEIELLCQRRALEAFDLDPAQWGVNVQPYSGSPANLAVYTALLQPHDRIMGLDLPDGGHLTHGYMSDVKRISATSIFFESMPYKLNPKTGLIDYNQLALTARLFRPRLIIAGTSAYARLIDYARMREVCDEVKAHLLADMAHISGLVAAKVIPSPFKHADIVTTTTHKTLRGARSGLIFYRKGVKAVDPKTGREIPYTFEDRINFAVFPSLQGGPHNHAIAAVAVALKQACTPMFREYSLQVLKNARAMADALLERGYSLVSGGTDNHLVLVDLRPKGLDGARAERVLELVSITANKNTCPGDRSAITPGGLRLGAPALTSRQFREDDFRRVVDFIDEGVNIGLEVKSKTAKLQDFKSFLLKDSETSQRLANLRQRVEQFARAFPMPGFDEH
Method: as §1, §2, §3

## CCC1(c2ccc(F)cc2)C(C#N)=C(N)Oc2[nH]nc(C)c21 (centres unmarked) [compound 2.2]
SHMT1
  IC50: 154 ± 14.4 µM
SHMT2
  IC50: 263 ± 48 µM

— paper PMC4826227, “A pyrazolopyran derivative preferentially inhibits the activity of human cytosolic serine hydroxymethyltransferase and induces cell death in lung cancer cells” (Oncotarget, 2015)
